From patent US6479531B1, “Gastrin and cholecystokinin receptor ligands” (James Black Foundation Limited, priority 1998, dated 2002)
Structures can show the parent of a compound that is named as a salt.

Experiments:
[1] = target: T1, gastrin receptor (Rattus norvegicus, UniProt P30553); test: gastrin antagonist activity in immature rat stomach assay (pentagastrin dose-response, acid secretion); details: isolated immature rat stomach, cumulative pentagastrin dose-response curves, read-out: Gastrin pKb (converted)
T1 construct: The stomach was excised and flushed with ca. 1 ml of unbuffered physiological saline solution; from tissue; host or cells: isolated whole stomach of immature rats (ca. 21 days old)
T1 sequence (P30553 1-452): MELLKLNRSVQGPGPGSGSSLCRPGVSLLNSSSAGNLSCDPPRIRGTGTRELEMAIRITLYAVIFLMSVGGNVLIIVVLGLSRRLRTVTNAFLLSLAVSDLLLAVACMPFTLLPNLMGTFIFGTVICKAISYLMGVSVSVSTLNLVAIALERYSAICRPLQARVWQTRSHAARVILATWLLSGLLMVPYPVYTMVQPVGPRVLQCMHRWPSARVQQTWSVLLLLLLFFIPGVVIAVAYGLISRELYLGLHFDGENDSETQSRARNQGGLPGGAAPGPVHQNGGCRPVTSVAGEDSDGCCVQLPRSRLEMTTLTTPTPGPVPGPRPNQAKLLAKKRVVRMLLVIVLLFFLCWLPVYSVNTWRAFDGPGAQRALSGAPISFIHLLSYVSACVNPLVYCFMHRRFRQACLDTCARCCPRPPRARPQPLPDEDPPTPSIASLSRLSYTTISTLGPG
In short: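 Isolated, lumen-perfused stomach from immature rats (33-50 g, ca. 21 days) in a 37° organ bath with 3×10^−8 M 5-methylfurmethide, gassed 95% O2/5% CO2. Compound added serosally after 120 min stabilisation; cumulative pentagastrin dose-response curves begun 60 min later, acid secretion followed by perfusate pH.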

[2] = target: T2, CCKB receptor (Mus musculus, UniProt P56481); test: CCKB receptor radioligand binding assay in mouse cortical membranes; details: [125I]-CCK8(S) 200 pM, 150 min at 21±3°, read-out: CCKB pKi (converted)
T2 construct: The whole brains from male mice (CD1 22-25 g; Charles River) were removed; from tissue; host or cells: cerebral cortex membranes of male CD1 mice
T2 sequence (P56481 1-453): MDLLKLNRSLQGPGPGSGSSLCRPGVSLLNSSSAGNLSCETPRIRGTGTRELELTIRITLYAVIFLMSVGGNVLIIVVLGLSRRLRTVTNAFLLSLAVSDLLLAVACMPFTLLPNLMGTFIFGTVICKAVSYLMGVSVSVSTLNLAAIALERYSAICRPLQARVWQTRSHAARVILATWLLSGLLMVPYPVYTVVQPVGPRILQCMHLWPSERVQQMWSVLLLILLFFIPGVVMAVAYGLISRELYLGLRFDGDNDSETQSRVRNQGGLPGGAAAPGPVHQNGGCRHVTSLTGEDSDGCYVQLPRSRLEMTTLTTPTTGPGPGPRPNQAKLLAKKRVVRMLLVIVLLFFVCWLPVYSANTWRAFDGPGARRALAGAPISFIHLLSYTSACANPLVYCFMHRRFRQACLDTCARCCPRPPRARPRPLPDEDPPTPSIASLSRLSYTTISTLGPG
In short: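 Bound radioactivity was gamma-counted after rapid GF/B filtration and cold 50 mM Tris-HCl (pH 7.4) washes. The tissue was cerebral cortex from male CD1 mice, prepared as twice-centrifuged membranes in pH 7.2 HEPES/NaCl/KCl/MgCl2/EDTA buffer with bacitracin at 20 mg/ml original wet weight.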

Kb [1]	Ki [2]	Structure (SMILES)
794 nM	186 nM	CN(C)c1cccc(-c2nc(C(=O)Nc3cccc(C(=O)O)c3)c(CCC34CC5CC(CC(C5)C3)C4)[nH]2)c1 [Example 71, 3-{[5-(2-Adamantan-1-yl-ethyl)-2-(3-dimethylamino-phenyl)-1H-imidazole-4-carbonyl]-amino}-benzoic Acid]
1230 nM	295 nM	CN(C)c1ccc(-c2nc(C(=O)Nc3cccc(C(=O)O)c3)c(CCC34CC5CC(CC(C5)C3)C4)[nH]2)cc1 [Example 72, 3-{[5-(2-Adamantan-1-yl-ethyl)-2-(4-dimethylamino-phenyl)-1H-imidazole-4-carbonyl]-amino}-benzoic Acid]
6.61 nM	417 nM	Cc1ccccc1-c1nc(C(=O)Nc2cccc(C(=O)O)c2)c(CCC23CC4CC(CC(C4)C2)C3)n1C [Example 73, 3-{[5-(2-Adamantan-1-yl-ethyl)-1-methyl-2-o-tolyl-1H-imidazole-4-carbonyl]-amino}-benzoic Acid]
25.7 nM	324 nM	Cc1ccccc1-c1nc(CCC23CC4CC(CC(C4)C2)C3)c(C(=O)Nc2cccc(C(=O)O)c2)n1C [Example 74, 3-{[5-(2-Adamantan-1-yl-ethyl)-3-methyl-2-o-tolyl-3H-imidazole-4-carbonyl]-amino}-benzoic Acid]
263 nM	200 nM	Cc1ccccc1-c1nc(NC(=O)Nc2cccc(C(=O)O)c2)c(CCC23CC4CC(CC(C4)C2)C3)[nH]1 [Example 75, 3-{3-[5-(2-Adamantan-1-yl-ethyl)-2-o-tolyl-1H-imidazol-4-yl]-ureido}-benzoic Acid]
20.9 nM	186 nM	CC(C)c1nc(C(=O)Nc2cccc(C(=O)O)c2)c(CCC23CC4CC(CC(C4)C2)C3)[nH]1 [Example 78, 3-{[5-(2-Adamantan-1-yl-ethyl)-2-isopropyl-1H-imidazole-4-carbonyl]-amino}-benzoic Acid]
5.37 nM	11.7 nM	O=C(O)c1cccc(NC(=O)c2[nH]c(C3CCCCCC3)nc2CCC23CC4CC(CC(C4)C2)C3)c1 [Example 79, 3-{[5-(2-Adamantan-1-yl-ethyl)-2-cycloheptyl-1H-imidazole-4-carbonyl]-amino}-benzoic Acid]
11 nM	67.6 nM	CC(C)(C)c1nc(C(=O)Nc2cccc(C(=O)O)c2)c(CCC23CC4CC(CC(C4)C2)C3)[nH]1 [Example 80, 3-{[5-(2-Adamantan-1-yl-ethyl)-2-tert-butyl-1H-imidazole-4-carbonyl]-amino}-benzoic Acid]
52.5 nM	269 nM	CCCc1nc(C(=O)Nc2cccc(C(=O)O)c2)c(CCC23CC4CC(CC(C4)C2)C3)[nH]1 [Example 81, 3-{[5-(2-Adamantan-1-yl-ethyl)-2-propyl-1H-imidazole-4-carbonyl]-amino}-benzoic Acid]
162 nM	1.02 nM	O=C(O)Cc1cccc(NC(=O)c2nc(C3CCCCC3)[nH]c2CCC23CC4CC(CC(C4)C2)C3)c1 [Example 84, (3-{[5-(2-Adamantan-1-yl-ethyl)-2-cyclohexyl-1H-imidazole-4-carbonyl]-amino}-phenyl)-acetic Acid]
741 nM	1020 nM	O=C(O)c1cccc(NC(=O)c2nc(CC34CC5CC(CC(C5)C3)C4)[nH]c2CCc2ccccc2)c1 [Example 86, 3-[(2-Adamantan-1-ylmethyl-5-phenethyl-1H-imidazole-4-carbonyl)-amino]-benzoic Acid]
1170 nM	2690 nM	Cc1ccccc1-c1nc(C(=O)Nc2cccc(C(=O)O)c2)c(CCc2ccccc2)[nH]1 [Example 87, 3-[(5-Phenethyl-2-o-tolyl-1H-imidazole-4-carbonyl)-amino]-benzoic Acid]
20 nM	676 nM	Cc1ccccc1-c1nc(C(=O)Nc2cccc(C(=O)O)c2)c(CCC2CCCCC2)[nH]1 [Example 89, 3-{[5-(2-Cyclohexyl-ethyl)-2-o-tolyl-1H-imidazole-4-carbonyl]-amino}-benzoic Acid]
158 nM	1020 nM	Cc1ccccc1-c1nc(NC(=O)c2cccc(C(=O)O)c2)c(CCC23CC4CC(CC(C4)C2)C3)[nH]1 [Example 92, N-[5-(2-Adamantan-1-yl-ethyl)-2-o-tolyl-1H-imidazol-4-yl]-isophthalamic Acid]
12.3 nM	166 nM	Cc1cc(F)ccc1-c1nc(C(=O)Nc2cccc(C(=O)O)c2)c(CCC23CC4CC(CC(C4)C2)C3)[nH]1 [Example 96, 3-{[5-(2-Adamantan-1-yl-ethyl)-2-(4-fluoro-2-methyl-phenyl)-1H-imidazole-4-carbonyl]-amino}-benzoic Acid]
501 nM	6.76 nM	Cc1ccccc1-c1nc(C(=O)Nc2cccc(CCC(=O)O)c2)c(CCC23CC4CC(CC(C4)C2)C3)[nH]1 [Example 97, 3-(3-{[5-(2-Adamantan-1-yl-ethyl)-2-o-tolyl-1H-imidazole-4-carbonyl]-amino}-phenyl)-propionic Acid Trifluoroacetic Acid Salt]
661 nM	263 nM	Cc1ccccc1-c1nc(C(=O)NCC(=O)Nc2cccc(C(=O)O)c2)c(CCC23CC4CC(CC(C4)C2)C3)[nH]1 [Example 103]
42.7 nM	129 nM	Cc1ccccc1-c1nc(C(=O)Nc2cccc(C(=O)O)c2C)c(CCC23CC4CC(CC(C4)C2)C3)[nH]1 [Example 104, 3-{[5-(2-Adamantan-1-yl-ethyl)-2-o-tolyl-1H-imidazole-4-carbonyl]-amino}-2-methyl-benzoic Acid]
87.1 nM	46.8 nM	Cc1ccccc1-c1nc(C(=O)Nc2ccc(F)c(C(=O)O)c2)c(CCC23CC4CC(CC(C4)C2)C3)[nH]1 [Example 105, 5-{[5-(2-Adamantan-1-yl-ethyl)-2-o-tolyl-1H-imidazole-4-carbonyl]-amino}-2-fluoro-benzoic Acid]
6.31 nM	5.89 nM	Cc1ccc(NC(=O)c2nc(-c3ccccc3C)[nH]c2CCC23CC4CC(CC(C4)C2)C3)cc1C(=O)O [Example 106, 5-{[5-(2-Adamantan-1-yl-ethyl)-2-o-tolyl-1H-imidazole-4-carbonyl]-amino}-2-methyl-benzoic Acid]
1550 nM	2340 nM	Cc1nc(C(=O)Nc2cccc(C(=O)O)c2)c(CCC23CC4CC(CC(C4)C2)C3)[nH]1 [Example 108, 3-{[5-(2-Adamantan-1-yl-ethyl)-2-methyl-1H-imidazole-4-carbonyl]-amino}-benzoic Acid]
1050 nM	339 nM	O=C(O)c1cccc(NC(=O)c2nc(-c3cnc[nH]3)[nH]c2CCC23CC4CC(CC(C4)C2)C3)c1 [Example 110, 3-{[5-(2-Adamantan-1-yl-ethyl)-1H-3′H-[2,4′]biimidazolyl-4-carbonyl]-amino}-benzoic Acid]
41.7 nM	91.2 nM	CC(C)(C)Cc1nc(C(=O)Nc2cccc(C(=O)O)c2)c(CCC23CC4CC(CC(C4)C2)C3)[nH]1 [Example 111, 3-{[5-(2-Adamantan-1-yl-ethyl)-2-(2,2-dimethyl-propyl)-1H-imidazole-4-carbonyl]-amino}-benzoic Acid]
9.33 nM	45.7 nM	CCC(CC)c1nc(C(=O)Nc2cccc(C(=O)O)c2)c(CCC23CC4CC(CC(C4)C2)C3)[nH]1 [Example 112, 3-{[5-(2-Adamantan-1-yl-ethyl)-2-(1-ethyl-propyl)-1H-imidazole-4-carbonyl]-amino}-benzoic Acid]
5.5 nM	7.24 nM	CCC(CC)c1nc(C(=O)Nc2ccc(C)c(C(=O)O)c2)c(CCC23CC4CC(CC(C4)C2)C3)[nH]1 [Example 113, 5{-[5-(2-Adamantan-1-yl-ethyl)-2-(1-ethyl-propyl)-1H-imidazole-4-carbonyl]-amino}-2-methyl-benzoic Acid]
3020 nM	1020 nM	O=C(O)c1cccc(NC(=O)c2sc(C3CCCCC3)nc2CCC23CC4CC(CC(C4)C2)C3)c1 [Example 122, 3-{[4-(2-Adamantan-1-yl-ethyl)-2-cyclohexyl-thiazole-5-carbonyl]-amino}-benzoic Acid]
